# Read-outs that look alike come from different tables or passages of the source.
# Legend:
# [1] = molecular target: T1, Human BBOX (γ-butyrobetaine hydroxylase) (Homo sapiens, UniProt O75936); assay: carnitine formation from gamma-butyrobetaine by UPLC/MS/MS; type: biochemical
# T1 construct: gene BBOX1; human recombinant enzyme
# T1 sequence (O75936 1-387): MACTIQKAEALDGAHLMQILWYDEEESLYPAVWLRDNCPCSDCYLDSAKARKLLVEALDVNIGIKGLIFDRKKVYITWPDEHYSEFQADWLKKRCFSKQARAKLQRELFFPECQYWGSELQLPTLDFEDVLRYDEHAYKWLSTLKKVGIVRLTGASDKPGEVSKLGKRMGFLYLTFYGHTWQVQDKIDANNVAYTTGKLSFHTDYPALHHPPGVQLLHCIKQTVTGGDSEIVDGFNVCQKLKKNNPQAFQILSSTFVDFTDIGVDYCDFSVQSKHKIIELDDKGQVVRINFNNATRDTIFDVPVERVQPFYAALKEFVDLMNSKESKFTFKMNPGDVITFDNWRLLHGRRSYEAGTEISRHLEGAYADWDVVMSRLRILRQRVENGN
# Text: carnitine formation from gamma-butyrobetaine by UPLC/MS/MS on Human BBOX (γ-butyrobetaine hydroxylase)
# [2] = molecular target: T2, hOCTN2 (carnitine/organic cation transporter OCTN2, SLC22A5) (Homo sapiens, UniProt O76082); assay: inhibition of L-carnitine uptake in hOCTN2-transfected cells; type: cell-based; conditions: 10 µM carnitine with (N-methyl-3H)-carnitine tracer, Na+ buffer pH 7.4, 37 °C
# T2 sequence (O76082 1-557): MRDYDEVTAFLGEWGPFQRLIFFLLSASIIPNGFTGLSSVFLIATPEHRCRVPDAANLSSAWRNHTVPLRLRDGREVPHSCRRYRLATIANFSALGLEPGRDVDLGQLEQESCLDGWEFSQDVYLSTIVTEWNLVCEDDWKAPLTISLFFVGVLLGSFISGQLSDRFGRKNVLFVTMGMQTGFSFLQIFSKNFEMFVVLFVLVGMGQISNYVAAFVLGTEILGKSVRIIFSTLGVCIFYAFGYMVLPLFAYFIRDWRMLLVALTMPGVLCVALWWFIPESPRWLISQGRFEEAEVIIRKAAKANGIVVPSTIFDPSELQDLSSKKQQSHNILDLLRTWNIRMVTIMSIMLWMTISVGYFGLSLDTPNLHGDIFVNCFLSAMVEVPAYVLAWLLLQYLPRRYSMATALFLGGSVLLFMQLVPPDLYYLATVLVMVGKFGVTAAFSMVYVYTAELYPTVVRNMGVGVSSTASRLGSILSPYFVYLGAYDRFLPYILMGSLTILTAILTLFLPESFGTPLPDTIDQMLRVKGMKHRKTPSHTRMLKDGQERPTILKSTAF
IC50 [1] [µM],"IC50 ([1]; 200 µM GBB, 3 mM 2-oxoglutarate, 0.25 mM ferrous ammonium sulfate, 10 mM ascorbate, pH 7.0, 37 °C, 15 min preincubation) [µM]",SMILES,carnitine uptake in presence of 50 μM compound [2]
97 ± 17,–,Cc1ccc(NC(=O)CCC[N+](C)(C)C)cc1C [4j],–
78 ± 16,–,C[N+](C)(C)CCCC(=O)Nc1ccc([N+](=O)[O-])cc1 [4k],"significantly inhibited by TCL substrates, including 4i, 4j, and 4k"
–,76 ± 13,C[N+](C)(C)CCCC(=O)NCCCc1ccccc1 [4t],–
